The source of these data is paper PMC4891385 (Clinical Drug Investigation, 2016).

Read-outs that look alike come from different tables or passages of the source.

The conditions of data set [1]: furosemide 40 mg with lesinurad 400 mg vs alone.
Substrate in data set [2]: O=C(O)CSc1nnc(Br)n1-c1ccc(C2CC2)c2ccccc12
Briefly: [14C]-lesinurad uptake, substrate test, OAT3 oocytes. The data set is classed as in vitro ADME. Conditions: other: lesinurad as substrate of OAT3.

Substrate in data set [3]: O=C(O)CSc1nnc(Br)n1-c1ccc(C2CC2)c2ccccc12
The data set is described as follows: [14C]-lesinurad uptake, substrate test, hOCT1 MDCK-II cells. The data set is classed as in vitro ADME, human. Conditions: other: lesinurad as substrate of OCT1.

[4] abbreviates: atorvastatin 40 mg with lesinurad 200 mg vs alone.

On to `CC(C)c1c(C(=O)Nc2ccccc2O)c(-c2ccccc2)c(-c2ccc(F)cc2)n1CCC(O)CC(O)CC(=O)O` (stereo not drawn) [2-OH-atorvastatin], for which, under setting [4], the “increase in AUC∞” value worked out at 20% and the “increase in Cmax” value worked out at 16%. Also, the “increase in Cmax” value (atorvastatin 40 mg with lesinurad 400 mg vs alone) is on record as 17–34%.

Consider `NS(=O)(=O)c1cc(C(=O)O)c(NCc2ccco2)cc1Cl` [Furosemide, furosemide], for which the “reduction of amount excreted in urine” value in data set [1] was “approximately 25%”.

B1: OAT3 (Homo sapiens) (protein)
chain: MTFSEILDRVGSMGHFQFLHVAILGLPILNMANHNLLQIFTAATPVHHCRPPHNASTGPWVLPMGPNGKPERCLRFVHPPNASLPNDTQRAMEPCLDGWVYNSTKDSIVTEWDLVCNSNKLKEMAQSIFMAGILIGGLVLGDLSDRFGRRPILTCSYLLLAASGSGAAFSPTFPIYMVFRFLCGFGISGITLSTVILNVEWVPTRMRAIMSTALGYCYTFGQFILPGLAYAIPQWRWLQLTVSIPFFVFFLSSWWTPESIRWLVLSGKSSKALKILRRVAVFNGKKEEGERLSLEELKLNLQKEISLAKAKYTASDLFRIPMLRRMTFCLSLAWFATGFAYYSLAMGVEEFGVNLYILQIIFGGVDVPAKFITILSLSYLGRHTTQAAALLLAGGAILALTFVPLDLQTVRTVLAVFGKGCLSSSFSCLFLYTSELYPTVIRQTGMGVSNLWTRVGSMVSPLVKITGEVQPFIPNIIYGITALLGGSAALFLPETLNQPLPETIEDLENWSLRAKKPKQEPEVEKASQRIPLQPHGPGLGSS
Take B1: the Km in data set [2] is reported as 2 µM.

B2: OCT1 (Homo sapiens) (protein)
chain: MPTVDDILEQVGESGWFQKQAFLILCLLSAAFAPICVGIVFLGFTPDHHCQSPGVAELSQRCGWSPAEELNYTVPGLGPAGEAFLGQCRRYEVDWNQSALSCVDPLASLATNRSHLPLGPCQDGWVYDTPGSSIVTEFNLVCADSWKLDLFQSCLNAGFLFGSLGVGYFADRFGRKLCLLGTVLVNAVSGVLMAFSPNYMSMLLFRLLQGLVSKGNWMAGYTLITEFVGSGSRRTVAIMYQMAFTVGLVALTGLAYALPHWRWLQLAVSLPTFLFLLYYWCVPESPRWLLSQKRNTEAIKIMDHIAQKNGKLPPADLKMLSLEEDVTEKLSPSFADLFRTPRLRKRTFILMYLWFTDSVLYQGLILHMGATSGNLYLDFLYSALVEIPGAFIALITIDRVGRIYPMAMSNLLAGAACLVMIFISPDLHWLNIIIMCVGRMGITIAIQMICLVNAELYPTFVRNLGVMVCSSLCDIGGIITPFIVFRLREVWQALPLILFAVLGLLAAGVTLLLPETKGVALPETMKDAENLGRKAKPKENTIYLKVQTSEPSGT
Take B2: in data set [3], the Michaelis constant (Km) turned out to be 20 µM.

The Km is the concentration of substrate that gives half-maximal velocity.
